Results on 2 molecules are retold here after patent US5789395A, “Method of using tetracycline compounds for inhibition of endogenous nitric oxide production” (The Research Foundation of State University of New York, priority 1996, dated 1998).

Test [1] deals with inducible OA-NOS in OA-affected cartilage. Kind of test: NO (nitrite) release from OA-affected cartilage in organ culture. It is filed as cell-based, human. The note with it: for inhibition of NO production in OA-affected cartilage: 5-80 μg/mL, 24-72 h, ex vivo; for IC50: Homo sapiens, 72 h. An excerpt:
We examined whether tetracyclines, e.g., doxycycline or minocycline, could block human OA-NOS activity under ex vivo conditions. Generally accepted pharmacologically relevant concentrations were selected for this study based on previous reports (Greenwald 1994, Yu et al. 1991, Cole et al. 1994, Mallya et al. 1994). OA-affected cartilage was obtained from patients with advanced OA undergoing knee replacement surgery and free of steroidal/nonsteroidal antiinflammatory drugs for at least 2 wk before surgery. OA-affected cartilage slices (FIGs. 1A-1C) were incubated in 0.1% BSA/endotoxin-free medium with 5-80 μg/mL of doxycycline or minocycline (Sigma Chemical Co., St. Louis, Mo.) for 24, 48 and 72 h in ex vivo conditions.
The assay of OA-iNOS in organ culture was basically carried out as described previously (Amin et al. 1995a). Briefly, the OA-affected cartilage was cultured in the presence or absence (Control) of doxycycline and minocycline at 5-80 μg/mL, for 24-72 h in an incubator (37° C.). Activity of NOS was monitored at different time intervals by estimating the amount of the stable end-product, nitrite, in the medium by a modified Griess reaction (Gilliam et al. 1993) using an ELISA reader. The amount of NO spontaneously released (as measured by nitrite accumulation) at 0, 24, 48 and 72 h was 0, 4.8±0.38, 16.4±0.7, and 17.8±0.9 μM, respectively. Data are expressed as μM nitrite released±(SD), n=3-4. The statistics were derived using unpaired Student's t test. FIGS. 1A-1C show a time series of graphs (1A=24 h; 1B=48 h; and IC=72 h) summarizing data representing one of three identical experiments with samples from different patients.

The subject of test [2] is iNOS in RAW 264.7 murine macrophage cells. Nature of the test: nitrite accumulation in LPS-stimulated RAW 264.7 cells. It is filed as cell-based. The conditions noted are these: for IC50: Mus musculus. As to the method: RAW 264.7 murine macrophage cells (American Type Culture Collection, Rockville, Md.) were incubated with and without doxycycline or minocycline (5-80 μg/mL) for 1-2 h followed by activation through addition of 100 ng/mL of LPS (Sigma Chemical Co., St. Louis, Mo.) to induce iNOS (Stuehr et al. 1991). After 14-20 h of incubation, the medium was used to estimate nitrite accumulation by the modified Griess reaction (Gilliam et al. 1993). The values are represented as μM of nitrite accumulated at a given time interval; n=3. The statistics were derived using unpaired Student's t test. The data represent one of three similar experiments.

The subject of test [3] is iNOS. Kind of test: iNOS activity (L-arginine-to-L-citrulline) in cell-free extracts of cells treated with modulator before LPS. It is filed as cell-based, murine. How it is done:
Murine macrophage cells (RAW 264.7) were incubated with 20-80 μg/mL doxycycline or minocycline, 10 μM hydrocortisone (Sigma Chemical Co., St. Louis, Mo.), or 75 μM L-NMMA for 1-2 h, followed by addition of LPS at 100 ng/mL and incubation for 16-18 h. Cell-free extracts were prepared at the end of each time period. Specific activity of iNOS was determined in the cell-free extracts by monitoring the conversion of L-[^3 H]-arginine to L-[^3 H]-citrulline as described by Amin et al. (1995b) and Vyas et al. (1996).
Cell-free extracts were prepared as follows: Following induction by incubation with LPS, the cells were pelleted at 4° C. and resuspended in Tris buffer (10 mM, pH 7.4) containing 10 μg/mL each chymostatin, antipain, leupeptin and pepstatin, 1 mM DTT and 1 mM PMSF. Cells were lysed in a Polytron PT 1200 homogenizer (Kinematica AG, Switzerland) after 3 cycles of rapid freeze-thawing. The lysate was centrifuged at 16,000 rpm for 60 min at 4° C., and the supernatants were used as cell-free extracts.
The protein in the extracts was measured by BCA assay reagent using BSA as standard (Smith et al. 1985). The reaction mixture for iNOS assay consists of Tris 50 mM (pH 7.8); BSA 1 mg/mL; DTT 1 mM; CaCl2, 2 mM; FAD 10 μM; BH4 10,μM; L-arginine 30 μM; NADPH 1 mM. The reaction mixture was spiked with 1μL (250 nM) of L-[^3 H]-arginine (Dupont NEN, Boston, Mass.) (1 mCi/mL=37.0 MBq/mL). After 20 min the assays were terminated by heating the reaction mixture at 90° C. for 5 min. Ten microiters (≈100,000 cpm) of the supernatant was spotted on activated AVICEL TLC plates (Analtech, Newark, Del.). The TLC plates were developed in a solvent system consisting of ethanol:water:ammonia (80:16:4). Quantitation of the spot for L-[^3 H]-citrulline was performed by a Bioscan System 200 Imaging Scanner.

Test [4] relates to iNOS mRNA. Kind of test: iNOS mRNA expression in LPS-stimulated RAW cells (Northern blot). The format is cell-based, murine. The conditions noted are these: Mus musculus, normalized against β-actin; for inhibition at 20 µg/mL: 20 μg/mL; for inhibition at 40 µg/mL: 40 μg/mL; for inhibition at 80 µg/mL: 80 μg/mL. As to the method:
Northern blot analysis of the iNOS MRNA expressed by the cells was then carried out to evaluate precisely the effect of iNOS expression in the presence of doxycycline and minocycline. The probes again were the iNOS and β-actin CDNA probes described above.
In this case, total RNA was isolated using TRI Reagent (MRC Inc., Cincinnati, Ohio). […] Briefly, 30 μg of RNA was subjected to electrophoresis in 1% agarose formaldehyde gel. The gel was then transferred via capillary action onto a nylon membrane (Zeta Probe, Bio-Rad Laboratories, Melville, N.Y.). The membrane was hybridized with [^32 P]-dCTP-labeled iNOS CDNA (4 kb SmaI fragment), a kind gift from Dr. James Cunningham (Harvard Medical School, Boston, Mass.). After hybridization, the blot was exposed to Kodak X-ray film (Kodak, Rochester, N.Y.) for 24-48 h with intensifying screens at -70° C. The β-actin probe was purchased from ClonTech (Palo Alto, Calif.) and probed as described above. Quantitation of the intensity of the iNOS/β-actin bands was performed using a phosphoimager (Molecular Dynamics, Sunnyvale, Calif.).

Converted amounts (≈) assume the structure as drawn. Read-outs that look alike come from different tables or passages of the source.

One may read the IC50 as the midpoint of a concentration-inhibition curve. A word on the inhibition: it is the percentage by which the read-out fell short of the control. The low end stands for little suppression, the high end for strong suppression. Turning to `C[C@H]1c2cccc(O)c2C(O)=C2C(=O)[C@]3(O)C(O)=C(C(N)=O)C(=O)[C@@H](N(C)C)[C@@H]3[C@@H](O)[C@@H]21` [doxycycline], the “inhibition of NO production in OA-affected cartilage” value in test [1] is “significantly inhibited NO production in OA-affected cartilage in a dose-dependent manner”. Also, the IC50 in test [1] came to 32 µg/mL (≈ 72 µM); in test [2] (RAW264.7, 14 h of incubation, read-out: IC50) it was 72 µg/mL (≈ 162 µM); in test [2] (RAW264.7, 20 h of incubation, read-out: IC50) it was 22 µg/mL (≈ 49.5 µM). The “concentration at which inhibitory effects on iNOS expression (mRNA, specific activity and nitrite accumulation) reach a plateau” value in test [2] was 40 to 80 µg/mL. In addition, the “concentration required to inhibit iNOS-mediated production of NO by >50%” value in test [2] (compared to minocycline, 14 h and 20 h) is reported as “significantly higher concentrations”. For the same molecule, the “IC50 to inhibit iNOS activity in cell lysates” value in test [3] fell in the range of 20 to 30 µg/mL. Further, the results for the “inhibition of iNOS activity” value in test [3] (20 μg/mL), in test [3] (40 μg/mL) and in test [3] (80 μg/mL) were 57%, 72% and 85%, respectively. In test [4], this molecule yielded an inhibition at 20 µg/mL of 68%. Besides, the inhibition at 40 µg/mL in test [4] was determined as 75%. In test [4], this molecule showed an inhibition at 80 µg/mL of 79%.

Take `CN(C)c1ccc(O)c2c1C[C@H]1C[C@H]3[C@H](N(C)C)C(O)=C(C(N)=O)C(=O)[C@@]3(O)C(O)=C1C2=O` [minocycline]: in test [1], the “inhibition of NO production in OA-affected cartilage” value is on record as “significantly inhibited NO production in OA-affected cartilage in a dose-dependent manner”. For the same molecule, the half-inhibitory concentration (IC50) in test [1] was determined as 54 µg/mL (≈ 118 µM); in test [2] (RAW264.7, 14 h), 17 µg/mL (≈ 37.2 µM); in test [2] (RAW264.7, 20 h), 12 µg/mL (≈ 26.2 µM). Also, the “concentration at which inhibitory effects on iNOS expression (mRNA, specific activity and nitrite accumulation) reach a plateau” value in test [2] was in the range of 40 to 80 µg/mL. For the same molecule, in test [3], the “IC50 to inhibit iNOS activity in cell lysates” value fell in the range of 20 to 30 µg/mL. Besides, the figures for the “inhibition of iNOS activity” value in test [3] (20 μg/mL), in test [3] (40 μg/mL) and in test [3] (80 μg/mL) were 45%, 69% and 69%, respectively. For the same molecule, the inhibition at 20 µg/mL in test [4] turned out to be 39%. Also, in test [4], testing at 40 µg/mL gave an inhibition of 49%. This molecule had an inhibition at 80 µg/mL in test [4] of 77%.
